From article PMC6212536, “Allosteric Site Inhibitor Disrupting Auto-Processing of Malarial Cysteine Proteases” (Scientific Reports, 2018)

Legend:
[1] = biological target: T1, pro-falcipain-2 (pro-FP2) (Plasmodium falciparum, UniProt Q8I6U4); assay: SPR, immobilized pro-enzyme; auto-processing also blocked; type: binding
T1 construct: gene FP2A

[2] = biological target: pro-falcipain-3 (pro-FP3) (Plasmodium falciparum, UniProt Q8IIL0); assay: as above; type: binding
Sequence of pro-falcipain-3 (pro-FP3) (Q8IIL0 57-492): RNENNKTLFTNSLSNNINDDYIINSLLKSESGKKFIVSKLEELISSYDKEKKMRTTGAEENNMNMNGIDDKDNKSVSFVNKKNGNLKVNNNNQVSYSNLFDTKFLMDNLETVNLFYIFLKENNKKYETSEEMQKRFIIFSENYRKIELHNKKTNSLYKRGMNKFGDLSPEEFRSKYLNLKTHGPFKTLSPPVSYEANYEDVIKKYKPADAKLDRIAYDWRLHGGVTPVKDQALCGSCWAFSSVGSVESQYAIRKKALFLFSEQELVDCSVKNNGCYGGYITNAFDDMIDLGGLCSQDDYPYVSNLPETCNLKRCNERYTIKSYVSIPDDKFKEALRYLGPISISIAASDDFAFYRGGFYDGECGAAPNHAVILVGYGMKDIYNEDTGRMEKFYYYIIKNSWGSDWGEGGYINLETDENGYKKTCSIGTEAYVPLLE

T1 sequence (Q8I6U4 208-484): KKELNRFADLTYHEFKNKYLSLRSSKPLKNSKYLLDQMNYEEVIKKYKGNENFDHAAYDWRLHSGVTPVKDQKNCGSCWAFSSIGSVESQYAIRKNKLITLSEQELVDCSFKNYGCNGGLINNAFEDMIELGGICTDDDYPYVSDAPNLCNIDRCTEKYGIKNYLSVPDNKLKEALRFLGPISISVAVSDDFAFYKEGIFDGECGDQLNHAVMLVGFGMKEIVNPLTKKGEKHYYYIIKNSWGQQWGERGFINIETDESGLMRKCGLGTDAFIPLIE

SMILES	Kd [1] [nM]	Kd [2] [nM]
O=C(CC1(CNC(=O)c2cnccn2)CCCCC1)NNC(=O)c1cnccn1 [NA-01]	1.72 ± 0.03	5.14 ± 0.07
O=C(CC1(NC(=O)c2cnccn2)CCCCC1)NNC(=O)c1cnccn1 [NA-03]	1.67 ± 0.01	2 ± 0.04
